# Measured values from publication PMC9203742 (Nature Communications, 2022).
# Several values for one entry are separate records, joined by “and”; a condition that tells them apart may be missing. Equal entries are not always repeated.
# Columns and labels:
# [1] = test system: HEK293 cells, control vector; assay: Inositol-1-phosphate (IP1) accumulation assay, HEK293 cells transfected with control vector; type: cell-based; conditions: 100 µM Glu; Vec; listed as Glu
# [2] = test system: HEK293 cells, vector control; assay: Fura-2 Ca2+ imaging in HEK293 cells transfected with control vector (Vec); type: cell-based; conditions: single-cell values #1-#20, listed as Glu
# [3] = test system: mGlu1 construct not given; assay: Fura-2 Ca2+ imaging in HEK293 cells, source data Suppl Fig1, middle group (c9-c17); construct not given; type: cell-based, rat; design: unit not given here; conditions: single-cell values, cells #15-#20; middle group of third block; listed as Glu
# Source text: (§1) Supplement 41467_2022_30828_MOESM6_ESM.zip/Ojima et al_source data_Suppl Fig.xlsx, sheet "Suppl Fig1" | column: Glu; NiCl2; CuCl2; ZnCl2; CdCl2; Na2PdCl2; Pd(bpy)
# [4] = test system: mGlu1 construct not given; assay: Fura-2 Ca2+ imaging in HEK293 cells, source data Suppl Fig1, right group (c18-c26); construct not given; type: cell-based, rat; design: unit not given here; conditions: single-cell values, cells #15-#20; right group of third block; listed as Glu
# Source text: as §1
# [5] = test system: mGlu1 construct not given; assay: Fura-2 Ca2+ imaging in HEK293 cells, source data Suppl Fig1, left group (c0-c8); construct not given; type: cell-based, rat; design: unit not given here; conditions: single-cell values, cells #15-#20; left group of third block; listed as Glu
# Source text: as §1
structure (smiles),measurement,setting,value
"N[C@@H](CCC(=O)O)C(=O)O [glutamate, reference compound]","IP1 accumulation, single experiments",[1],1.025 and 1.123 and 0.98
same,"Ca2+ response of individual cells (source data Suppl Fig1), Vec",[2],0.01056 and 0.06409 and 0.01964 and 0.006185 and 0.01272 and 0.02269 and 0.02795 and 0.001992 and 0.03471 and 0.04057 and 0.0119 and 0.01116 and 0.01651 and 0.008954 and 0.06266 and 0.02138 and 0.004577 and 0.01188 and 0.01429 and 0.0107
same,"Ca2+ response of individual cells (source data, sheet Suppl Fig1)",[3],0.1431 and 0.7212 and 0.03709 and 0.1609 and 0.01695 and 0.7758
same,"Ca2+ response of individual cells (source data, sheet Suppl Fig1)",[4],0.5202 and 0.5869 and 0.3843 and 0.3042 and 0.505 and 0.02158
same,"Ca2+ response of individual cells (source data, sheet Suppl Fig1)",[5],0.1813 and 0.3548 and 0.1848 and 0.1996 and 0.1287 and 0.1577
